Measured values: DBAASP
Converted amounts (≈) assume the structure as drawn. One block for each molecule: values may come before it.

What was measured:
Test in all cases: ≥ marks a high value that may be exact or a test limit, other limits are often not marked, values filed in µg/mL are converted to µM
[1] = system: Escherichia coli ATCC 25922
[2] = system: Lactococcus garvieae 00-1422
[3] = system: Vibrio anguillarum ATCC 19264
[4] = system: Shigella flexneri ATCC 12022
[5] = system: Streptococcus iniae 00-1425
[6] = system: Staphylococcus aureus ATCC 29213
[7] = system: Aeromonas salmonicida NCTC 7812
[8] = system: Enterococcus faecalis ATCC 29212
[9] = system: Pseudomonas aeruginosa ATCC 27853
[10] = system: Acinetobacter baumannii ATCC 19606
[11] = system: Staphylococcus aureus ATCC 33591
[12] = system: Klebsiella pneumoniae ATCC 13883
[13] = system: Staphylococcus epidermidis ATCC 12228
[14] = system: Staphylococcus aureus ATCC 43300
[15] = system: Salmonella enterica subsp. enterica serovar Choleraesuis ATCC 10708
[16] = system: Micrococcus luteus DSM 20030
[17] = system: Staphylococcus aureus DSM 2569
[18] = system: Listeria fleischmannii DSM 24998
[19] = system: Listeria monocytogenes DSM 20600
[20] = system: Streptococcus mutans UA159
[21] = system: Streptococcus sobrinus ATCC 6715
[22] = system: Streptococcus sanguinis ATCC 10556
[23] = system: Candida albicans ATCC 18804
[24] = system: Staphylococcus aureus ATCC 25923

SMILES: CC(C)[C@H](NC(=O)[C@H](CCCCN)NC(=O)[C@H](CCCCN)NC(=O)[C@H](C)NC(=O)[C@H](CCCCN)NC(=O)[C@H](CCCCN)NC(=O)[C@H](Cc1ccccc1)NC(=O)[C@H](Cc1ccccc1)NC(=O)[C@H](CCCCN)NC(=O)[C@H](CCCCN)NC(=O)[C@H](Cc1c[nH]c2ccccc12)NC(=O)CN)C(=O)NCC(=O)N[C@@H](CCCCN)C(=O)O [GWKKFFKKAKKVGK]
MIC [20]: ≥ 305 µM
MIC [21]: ≥ 305 µM
MIC [22]: ≥ 305 µM

SMILES: CC(C)C[C@H](NC(=O)[C@H](Cc1cnc[nH]1)NC(=O)[C@H](Cc1ccc(O)cc1)NC(=O)[C@H](CCCN=C(N)N)NC(=O)[C@H](Cc1ccc(O)cc1)NC(=O)[C@H](CCCCN)NC(=O)[C@@H](N)CCCCN)C(=O)N[C@@H](CCCCN)C(=O)N1CCC[C@H]1C(=O)N[C@@H](Cc1ccccc1)C(=O)N[C@@H](CO)C(=O)N[C@@H](CCCCN)C(=O)N[C@@H](CCCCN)C(N)=O [KKYRYHLKPFSKK]
MIC [1]: 128 µM (≈ 220 µg/mL)
MIC [23]: ≥ 128 µM
MIC [24]: > 128 µM

Second part, led by results:

MIC [1]: 4.91 µM (≈ 12.5 µg/mL)
MIC [2]: 0.61 µM (≈ 1.55 µg/mL)
MIC [3]: 4.91 µM (≈ 12.5 µg/mL)
MIC [4]: 2.46 µM (≈ 6.26 µg/mL)
MIC [5]: 2.46 µM (≈ 6.26 µg/mL)
MIC [6]: 2.46 µM (≈ 6.26 µg/mL)
MIC [7]: ≥ 78.6 µM
MIC [8]: 1.23 µM (≈ 3.13 µg/mL)
SMILES: CC[C@H](C)[C@H](NC(=O)CNC(=O)[C@H](CCCN=C(N)N)NC(=O)[C@H](Cc1ccccc1)NC(=O)[C@@H](NC(=O)[C@H](Cc1cnc[nH]1)NC(=O)[C@H](Cc1cnc[nH]1)NC(=O)[C@H](Cc1ccccc1)NC(=O)[C@@H](N)Cc1ccccc1)[C@@H](C)CC)C(=O)N[C@H](C(=O)N[C@@H](Cc1cnc[nH]1)C(=O)N[C@H](C(=O)NCC(=O)N[C@@H](CCCCN)C(=O)N[C@H](C(=O)N[C@H](C(=O)N[C@@H](Cc1cnc[nH]1)C(=O)N[C@@H](CCCCN)C(=O)N[C@@H](CC(C)C)C(=O)N[C@H](C(=O)N[C@H](C(=O)NCC(=O)O)[C@@H](C)O)C(C)C)[C@@H](C)CC)[C@@H](C)O)C(C)C)C(C)C [FFHHIFRGIVHVGKTIHKLVTG]

MIC [1]: 50 µM (≈ 94.1 µg/mL)
MIC [9]: 40 µM (≈ 75.3 µg/mL)
MIC [10]: 20 µM (≈ 37.6 µg/mL)
MIC [11]: 5 µM (≈ 9.41 µg/mL)
MIC [12]: ≥ 60 µM
MIC [13]: 7.5 µM (≈ 14.1 µg/mL)
MIC [6]: 5 µM (≈ 9.41 µg/mL)
MIC [14]: 5 µM (≈ 9.41 µg/mL)
SMILES: CC[C@H](C)[C@H](NC(=O)[C@H](C)NC(=O)[C@H](CO)NC(=O)[C@@H]1CCCN1C(=O)[C@@H](NC(=O)[C@H](CC(C)C)NC(=O)[C@H](CO)NC(=O)[C@H](Cc1ccccc1)NC(=O)[C@H](CC(C)C)NC(=O)[C@@H](N)Cc1ccccc1)[C@@H](C)CC)C(=O)NCC(=O)NCC(=O)N[C@@H](CC(C)C)C(=O)N[C@H](C(=O)N[C@@H](CO)C(=O)N[C@@H](C)C(=O)N[C@@H](Cc1ccccc1)C(=O)N[C@@H](CCCCN)C(=O)O)[C@@H](C)CC [FLFSLIPSAIGGLISAFK]
MIC [15]: ≥ 60 µM

MIC [16]: 4 µM (≈ 6.1 µg/mL)
MIC [17]: 8 µM (≈ 12.2 µg/mL)
MIC [18]: 15 µM (≈ 22.9 µg/mL)
MIC [19]: 15 µM (≈ 22.9 µg/mL)
SMILES: CC[C@H](C)[C@H](NC(=O)CNC(=O)[C@H](CC(N)=O)NC(=O)[C@H](Cc1c[nH]c2ccccc12)NC(=O)[C@@H](NC(=O)[C@@H](NC(=O)[C@H](CO)NC(=O)[C@H](CC(C)C)NC(=O)[C@@H](N)Cc1ccccc1)[C@@H](C)O)[C@@H](C)CC)C(=O)N[C@@H](CCCCN)C(=O)N[C@@H](CO)C(=O)N[C@@H](CC(C)C)C(=O)N[C@@H](Cc1ccccc1)C(N)=O [FLSTIWNGIKSLF]
